Test results from US20220160714A1, “METHODS FOR TREATING COLORECTAL CANCER” (ICAHN SCHOOL OF MEDICINE AT MOUNT SINAI, priority 2019, published 2022).

These compounds were tested on patient's personalized Drosophila model 006.1 (assay: Trametinib combination drug screen (Table 4B, experimental pupae numbers)). Conditions: drug screened in combination with trametinib.
Assay type: in vivo
Procedure, shortened: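 Experimental and control embryos (1:2 ratio) from the UAS-006.1/ago and apc RNAi byn-gal4 tub-gal80^ts cross, laid at 22 °C, dispensed onto drug-containing food, then shifted to 25 °C to induce transgene expression. Surviving experimental pupae counted per tube after 2 weeks; DMSO and Trametinib alone as controls.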

Structure (SMILES)	EP (raw experimental pupae numbers), replicate 1	EP (raw experimental pupae numbers), replicate 2	EP (raw experimental pupae numbers), replicate 3	EP (raw experimental pupae numbers), replicate 4	EP (raw experimental pupae numbers), replicate 5	EP (raw experimental pupae numbers), replicate 6	EP (raw experimental pupae numbers), replicate 7	EP (raw experimental pupae numbers), replicate 8
CC(C)n1c(/C=C/C(O)CC(O)CC(=O)O)c(-c2ccc(F)cc2)c2ccccc21 (centres unmarked) [fluvastatin]	0	0	0	0	0	0	0	2
NCCCNCCSP(=O)(O)O [amifostine]	1	1	1	0	1	6	0	0
O=C(CCCN1CCC(O)(c2ccc(Cl)cc2)CC1)c1ccc(F)cc1 [haloperidol]	0	0	2	2	2	1	1	1
CNCCC(Oc1ccc(C(F)(F)F)cc1)c1ccccc1 (centres unmarked) [fluoxetine]	2	2	0	0	7	1	0	1
Cc1cc(/C=C/c2ccc3cc(N(C)C)ccc3[n+]2C)c(C)n1-c1ccccc1 [pyrvinium]	4	1	6	4	2	1	3	0
O=C1CCc2ccc(OCCCCN3CCN(c4cccc(Cl)c4Cl)CC3)cc2N1 [aripiprazole]	0	0	1	0	0	2	1	2
CNS(=O)(=O)Cc1ccc2[nH]cc(CCN(C)C)c2c1 [sumatriptan succinate]	0	0	1	1	1	1	1	1
OC[C@H]1O[C@@H](c2ccc(Cl)c(Cc3ccc(O[C@H]4CCOC4)cc3)c2)[C@H](O)[C@@H](O)[C@@H]1O [empagliflozin]	4	0	0	2	5	2	1	2
CC(C(=O)O)c1ccc2c(c1)Cc1cccnc1O2 (centres unmarked) [pranaprofen]	0	1	1	1	1	3	1	3
O=C(O)CSc1nnc(Br)n1-c1ccc(C2CC2)c2ccccc12 [lesinurad sodium]	0	0	1	0	1	2	1	0
CC1Cc2ccccc2N1NC(=O)c1ccc(Cl)c(S(N)(=O)=O)c1 (centres unmarked) [indapamide]	0	0	1	0	2	2	0	4

Same assay, conditions: drug screened in combination with trametinib; mean of 8 replicates

Structure (SMILES)	EP mean
CC(C)n1c(/C=C/C(O)CC(O)CC(=O)O)c(-c2ccc(F)cc2)c2ccccc21 (centres unmarked) [fluvastatin]	0.25
NCCCNCCSP(=O)(O)O [amifostine]	1.25
O=C(CCCN1CCC(O)(c2ccc(Cl)cc2)CC1)c1ccc(F)cc1 [haloperidol]	1.125
O=C1CCc2ccc(OCCCCN3CCN(c4cccc(Cl)c4Cl)CC3)cc2N1 [aripiprazole]	0.75
CNS(=O)(=O)Cc1ccc2[nH]cc(CCN(C)C)c2c1 [sumatriptan succinate]	0.75
OC[C@H]1O[C@@H](c2ccc(Cl)c(Cc3ccc(O[C@H]4CCOC4)cc3)c2)[C@H](O)[C@@H](O)[C@@H]1O [empagliflozin]	2
CC(C(=O)O)c1ccc2c(c1)Cc1cccnc1O2 (centres unmarked) [pranaprofen]	1.375
O=C(O)CSc1nnc(Br)n1-c1ccc(C2CC2)c2ccccc12 [lesinurad sodium]	0.625
CC1Cc2ccccc2N1NC(=O)c1ccc(Cl)c(S(N)(=O)=O)c1 (centres unmarked) [indapamide]	1.125

Same assay, conditions: in vivo

Structure (SMILES)	EP mean	EP (raw experimental pupae numbers), replicate 1	EP (raw experimental pupae numbers), replicate 2	EP (raw experimental pupae numbers), replicate 3	EP (raw experimental pupae numbers), replicate 4	EP (raw experimental pupae numbers), replicate 5	EP (raw experimental pupae numbers), replicate 6	EP (raw experimental pupae numbers), replicate 7	EP (raw experimental pupae numbers), replicate 8
CNCCC(Oc1ccc(C(F)(F)F)cc1)c1ccccc1 (centres unmarked) [fluoxetine]	1.625								
C[C@H](CCC(=O)O)[C@H]1CC[C@H]2[C@@H]3[C@H](O)C[C@@H]4C[C@H](O)CC[C@]4(C)[C@H]3C[C@H](O)[C@]12C [cholic acid]	1.375	1	0	2	1	1	1	3	2
